Tests used:
[1] = tested on: nestin-positive cells (neural stem cells); assay: Nestin-positive cells in the SVZ region, immunohistochemical stain; format: in vivo, Sprague-Dawley rats; settings: for number of nestin-positive cells in the SVZ region (mean±SD): diluted solution via carotid artery once a day, ten days
Description: Male Sprague-Dawley rats with the age of 12 weeks and weight of 250^˜280 g were used in the experiment after acclimating for a week.
A middle cerebral artery occlusion model was first established in compliance with the method of Longa E Z et al. (Longa E Z, et al. Reversible middle cerebral artery occlusion without craniectomy in rats. Stroke 20:84-91, 1989). More specifically, 0.36 g/kg of 10% chloral hydrate was administered intraperitoneally to rats which had been fasted for 12 hours (although given free access to water) to anesthetize the rats. Next, a midline incision was made in the neck to expose the right common carotid artery. Then, the internal carotid artery and external carotid artery were separated, the posterior carotid artery, which is a branch of the external carotid artery, and the thyroidea arteria were coagulated and severed, the external carotid artery was ligated at the branch of the lingual artery and maxillary artery, a small puncture was formed in the external carotid artery, 4-0 Nylon suture was passed through the common carotid artery from the puncture, and gradually inserted into the internal carotid artery until there was resistance. The length of the Nylon suture was about 18^˜20 mm from the branch of the common carotid artery. As a result of occluding the middle cerebral artery with Nylon suture, an ischemic state was applied for 2 hours to create a middle cerebral artery occlusion model.
A cerebral ischemia/reperfusion injury model was established by removing the Nylon suture from the middle cerebral artery of the occlusion model and following reperfusion of blood.
The first solution was a mixed solution made of sodium chlorite with the concentration of 7.47% and sodium chloride with the concentration of 1.59% with deionized water; the second solution was made of citric acid with the concentration of 16.7% with deionized water. Same volume of solutions were taken out from different vessels with different volumes and mixed up. Allow the solution to mix for 3-5 minutes and dilute it five times with normal saline, and then filter it with 0.22 μm filter membrane of double-deck. The solution was immediately put into injector. The solution was prepared once being used.
Treatment group (120 rats): A cerebral ischemia/reperfusion injury model was established for the rats already. To administer chlorine dioxide solution everytime that prepared from procedure (3) through carotid artery after the second day the model has established, once a day for total ten days.
Ten rats of each group were autopsied on day 7, 14 and 21 after the model established, respectively (total animals are 30 rats from each group). After preparation of tissue specimens, the neural stem cells were counted under a microscope.
More specifically, rat frozen brain sections were prepared on day 7, 14 and 21 after the model established, and the presence of nestin-positive cells in the subventricular zone (SVZ) was measured by immunohistochemical stain using the marker of nestin expressed on the neural stem cells. The presence of nestin-positive cells was analyzed using mouse anti-rat nestin monoclonal antibody.
BRt(%)=(Bt−St)/(Mt−St)×100

chronic eczema = assay: Chronic eczema patients, topical solution (Example 7); format: in vivo, human
Description: The subjects consisted of 12 patients with chronic eczema and average seven years of course of disease. External used medicines and oral administration, such as glucocorticoid and antihistamine drug were used discontinuously, but were poor in treatment. Activating agent was administered according to the following methods:
To smear solution over the affected parts immediately, once a day for consecutive 10 to 15 days, and then stop administration. If the eczema relapsed, reusing it again.

[2] = tested on: chronic and allergic rhinitis; assay: Chronic and allergic rhinitis patients vs ephedrine nose drops (Example 9); format: in vivo, human
Excerpt: The subjects consisted of 30 patients with chronic and allergic rhinitis, and half of them were randomly assigned to treatment group and control group.
The first solution was a mixed solution made of sodium chlorite with the concentration of 7.47% and sodium chloride with the concentration of 1.59% with deionized water; the second solution was made of citric acid with the concentration of 16.7% with deionized water. The solution comprising chlorine dioxide was made by mixing up the two solutions above. To make 50 ml solution for each patient each time and put it into a bottle and stores it in the refrigerator. 2-5 ml of solution for each patient each time was taken out and put into a beaker. The patients would breathe aiming at the cup-mouth for one to two minutes, and then the solution was diluted five to hundred times with normal saline before being put into nasal spray. To spray on each side of nose for three to five times. It was conducted once a day for consecutive 5 to 10 days. Then the administration was stopped, reuse the administration method for recurrence. The course of treatment was three months. The administration for patients in control group: use the ephedrine nose drops three times a day with three drops on each side each time for consecutive seven days. Reuse the administration method for recurrence. The course of treatment was three months.
Evaluation of the effects: The effects can be divided into excellent, effective and ineffective according to symptoms and signs. 1) Excellent: subjective symptoms disappear and positive sign become normal. 2) Effective: subjective symptoms and positive sign decrease obviously. […] Total effective rate(%)=(No. of excellent cases+No. of effective cases)/total cases×100%. Recurrence rate of rhinitis after treatment means the recurrence rate six months after treatment of all the cases. Table 19 is about the treatment of rhinitis.

[3] = 12 cases traced for eight months
[4] = 30 cases per group, three-month course

[O][Cl+][O-] [chlorine dioxide solution, chlorine dioxide]
BRt: nestin-positive cells in treatment group relative to model group = 100%, (Bt-St)/(Mt-St)x100 ([1]; Day 7): 157.4% | number of nestin-positive cells in the SVZ region (mean±SD) ([1]; Day 7 after model established, model group 210.5 ± 22.3, sham 45.6 ± 5.69): 305.2 ± 30.6 No. cells/mm2 | BRt: nestin-positive cells in treatment group relative to model group = 100%, (Bt-St)/(Mt-St)x100 ([1]; Day 14): 150.2% | number of nestin-positive cells in the SVZ region (mean±SD) ([1]; Day 14, model group 74.5 ± 13.4, sham 13.2 ± 1.64): 105.3 ± 15.4 No. cells/mm2 | BRt: nestin-positive cells in treatment group relative to model group = 100%, (Bt-St)/(Mt-St)x100 ([1]; Day 21): 138.5% | number of nestin-positive cells in the SVZ region (mean±SD) ([1]; Day 21, model group 46.2 ± 6.31, sham 1.99 ± 1.09): 63.2 ± 7.55 No. cells/mm2 | cases that recurred once and did not recur after treatment for two times (chronic eczema; [3]): four | cases that recurred twice and did not recur after the third treatment (chronic eczema; [3]): two | cases with no recurrence (chronic eczema; [3]): six | clinical sign and pathological change of tissue after treatment (chronic eczema; 12 chronic eczema patients): became normal | time until stabbing pain and itching disappeared after administration (chronic eczema; 12 chronic eczema patients, NaClO2 8%/NaCl 2% + citric acid 12% 1:1, smeared once a day 10 to 15 days): about half an hour | time until the affected parts scabbed (chronic eczema; 12 chronic eczema patients, topical once a day): two to five days | Effective (No. of cases): symptoms and signs decrease obviously [2, 4]: 3 | Effective rate = (excellent + effective)/total cases [2, 4]: 97% | Ineffective (No. of cases) [2, 4]: 1 | Excellent (No. of cases): symptoms disappear, signs normal ([2]; 30 cases per group, three-month course, test: NaClO2 7.47% + citric acid 16.7%, breathed 1-2 min then nasal spray diluted 5-100 times, once a day 5 to 10 days, control three times a day seven days): 26 | No. of Recurrences ([2]; six months after treatment): 3 | Recurrence rate ([2]; six months after treatment): 10%

— patent US20150335678A1, “METHOD OF ACTIVATING STEM CELLS IN AN ANIMAL AND THE USE OF CHLORINE DIOXIDE FOR PREPARING MEDICINES FOR ACTIVATING STEM CELLS IN AN ANIMAL” (priority 2012, published 2015)
